Results: US20210009542A1 (Calico Life Sciences LLC, priority 2018, published 2021)
Read-outs that look alike come from different tables or passages of the source.

Key:
[1] = system: B16F10 mouse melanoma cells; experiment: B16F10 IFNγ-induced cellular growth inhibition assay; format: cell-based; conditions: for inhibition at 33 µM: Mus musculus, B16-F10
Summary of the method: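 B16F10 cells (500/well, DMEM + 10% FBS) dosed in triplicate at 100 μM to 0.001 μM (0.1% DMSO) with or without 0.5 ng/mL final mouse IFNγ. Confluence imaged every 6 h for 5 days; % growth inhibition calculated versus DMSO/with-IFNγ control once DMSO/no-IFNγ wells exceeded 95% confluence.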

[2] = system: Pan T cells isolated from C57BL6 splenocytes; experiment: T cell function assay (IFNγ and TNFα in supernatants, MSD V-plex); format: cell-based, mouse; conditions: 30 μM compound, 3 days, supernatant
Method: Pan T cells were isolated from C57BL6 splenocytes using a MACS Pan T cell isolation kit II (Miltenyi Biotec, Auburn, Calif.) according to the manufacturer's instructions. Isolated T cells (200,000 cells/well in a 96 well flat-bottom plate) were cultured in RPMI 1640 supplemented with 10% FBS, […] 2-mercatoethanol, 100 U/mL penicillin, and 100 μg/mL streptomycin, and incubated with the indicated concentration of compound or DMSO in duplicates. After 1 hour, mouse T cell activator CD3/CD28 Dynabeads (ThermoFisher Scientific, Waltham, Mass.) were added at a 1:5 beads to cells ratio to stimulate the T cells for 2 or 3 days as outlined below. T cells with or without compound were incubated in the absence of T cell activator beads (media only) as control.
After 3 days of stimulation, supernatants were collected and IFNγ and TNFα in supernatants were assessed using an MSD V-plex assay (Meso Scale Discovery, Rockville, Md.).

[3] = system: MC-38 murine colon adenocarcinoma; experiment: In vivo efficacy in MC38 tumor model; conditions: for mice that achieved complete cures / tolerability / Tumor Growth Inhibition (Max) compared to vehicle [%]: 300 mg/kg/dose oral BID for 21 days; for Tumor Growth Inhibition (Max) compared to vehicle [%]: C57Bl/6 mice, TGIMax over the entirety of the study; for tumor response observed: within 7-10 days of treatment
Method: All experiments were conducted in compliance with AbbVie's Institutional Animal Care and Use Committee and the National Institutes of Health Guide for Care and Use of Laboratory Animals guidelines in a facility accredited by the Association for the Assessment and Accreditation of Laboratory Animal Care. C57Bl/6 female mice were obtained from Charles River (Wilmington, Mass.). The mice were group-housed 10 per cage. Food and water were available ad libitum. Animals were acclimated to the animal facilities for a period of at least one week prior to commencement of experiments. Animals were tested in the light phase of a 12-hour light:12-hour dark schedule (lights on 0600 hours).
Cells were grown to passage 3 in vitro. A total of 1×10^5 viable MC-38 cells were inoculated subcutaneously into the right flank of female C57Bl/6 mice (7-12 weeks old) on Day 0. The injection volume was 0.1 mL and was composed of a 1:1 mixture of S-MEM and Matrigel® (Corning, N.Y., USA). […] The mean tumor volume (TV) at size match was approximately 116±8 mm^3. Following size match, treatments were initiated on the same day. […] Compound 124 was formulated in 5% DMSO, 5% Tween 80 (Polysorbate 80), 20% PEG-400 and 70% D5W (5% dextrose in water) and was dosed at 10 mL/kg. […] Tumor volume was calculated three times weekly. Measurements of the length (L) and width (W) of the tumor were taken via electronic caliper and the volume was calculated according to the following equation: V=L×W^2/2 using Study Director Version 3.1.399.22 (Studylog Systems, Inc, CA, USA). Mice were euthanized when tumor volume was […] or skin ulcerations occurred. […] Reported TGIMax is the largest TGI value for any timepoint that tumors volumes were collected for that treatment group.

[4] = +0.5 ng/mL IFNγ, 33 μM compound, relative to DMSO control, read-out: % B16F10 growth inhibition (+0.5 ng/mL IFNγ) @ 33 μM
[5] = no IFNγ, 33 μM compound, read-out: % B16F10 growth inhibition (no IFNγ) @ 33 μM
[6] = anti-CD3/anti-CD28 Dynabeads (1:5 beads:cells)

SMILES	inhibition at 33 µM [1, 4]	inhibition at 33 µM [1, 5]	IFNγ [2, 6]	TNFα [2, 6]	mice that achieved complete cures [3]	tolerability [3]	Tumor Growth Inhibition (Max) compared to vehicle [%] [3]	tumor response observed [3]	inhibition at 33 µM ([1]; 33 μM, in the presence of IFNγ, read-out: growth inhibition in the presence of IFNγ compared to DMSO controls)	% B16F10 growth inhibition (+0.5 ng/mL IFNγ) @ 33 μM ([1]; Table 4, +0.5 ng/mL IFNγ, 33 μM)	% B16F10 growth inhibition (no IFNγ) @ 33 μM ([1]; Table 4, no IFNγ, 33 μM)	growth inhibition in the absence of IFNγ ([1]; absence of IFNγ)	IFNγ ([2]; no TCR stimulation)	TNFα ([2]; no TCR stimulation)
CC(C)(O)CCOc1ccc2cc(O)c(N3CC(=O)NS3(=O)=O)c(F)c2c1 [Compound 182, 5-[1-fluoro-3-hydroxy-7-(3-hydroxy-3-methylbutoxy)naphthalen-2-yl]-1λ^6,2,5-thiadiazolidine-1,1,3-trione]	60 to 90%	< 25%	189 ng/mL	135 ng/mL	50%	well tolerated, without obvious adverse health events	94%	apparent tumor stasis and shrinkage						
COc1ccc2cc(O)c(N3CC(=O)NS3(=O)=O)c(F)c2c1 [Compound 124, 5-(1-fluoro-3-hydroxy-7-methoxynaphthalen-2-yl)-1λ^6,2,5-thiadiazolidine-1,1,3-trione]	60 to 90%	< 25%	435 ng/mL	195 ng/mL	50%	well tolerated, without obvious adverse health events	75%	apparent tumor stasis and shrinkage	60 to 90%	B (a percent growth inhibition of 60-90%)	D (a percent growth inhibition of <25%)	no observed growth inhibition	1.2 ng/mL	1.4 ng/mL
